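Dose response: 5 concentrations. Exposure: 48 h. Format: 96-well plates. Endpoint: linear interpolation; highest concentration if not reached. At the TGI there is no net growth.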

Test in all cases: inhibition of tumour cell growth, NCI panel, 48 h
In assay [1] the test system is SK-MEL-2 melanoma.
The test system of assay [2] is RPMI-8226 leukemia.
Assay [3] relates to NCI-H226 lung.
Assay [4] concerns HCT-116 colon.
The test system of assay [5] is OVCAR-3 ovarian.
For assay [6], the system named is A498 renal.
Assay [7] has as its system HOP-62 NSCLC.
In assay [8] the test system is TK-10 renal.
The subject of assay [9] is NCI-H460 lung.
Assay [10] concerns KM12 colon.
For assay [11], the system named is OVCAR-8 ovarian.
For assay [12], the system named is MDA-MB-231 breast.
Assay [13] relates to PC-3 prostate.
Assay [14] concerns T-47D breast.

On to `Cc1ccc(NC(=O)CCc2nnc3s/c(=C\c4cccc([N+](=O)[O-])c4)c(=O)n23)cc1`, for which the TGI in assay [1], in assay [2], in assay [3], in assay [4], in [5] and in assay [6] was above 100 µM throughout. Also, the TGI in [7], in assay [8], in [9], in [10] and in [11] was above 100 µM each time.
Turning to `Cc1ccc(C(=O)C(c2nc3n(c2O)C(=N)N=N3)c2nc3n(c2O)C(=N)N=N3)cc1` (stereo not given), the TGI in assay [1], in [2], in assay [3], in assay [5], in assay [6] and in assay [8] was above 100 µM in each case. For the same compound, the TGI in assay [9], in assay [10] and in assay [11] was above 100 µM each time.
In the case of `CC(=O)NNc1nc(C)c(C(/C=C/c2ccc(Cl)cc2)=N\N=C(N)N)s1`, the TGI in assay [2], in assay [3], in [4], in assay [5], in assay [7] and in assay [8] was above 100 µM throughout. For the same compound, the TGI in [9], in assay [10] and in assay [11] was above 100 µM in each case.
Take `CN1C(=S)CSc2ccccc21`: the TGI in assay [1], in assay [2], in assay [3], in assay [4], in [5] and in [7] was above 100 µM each time. For the same compound, the TGI in assay [8], in assay [9], in assay [10] and in [11] was above 100 µM in each case.
Regarding `CSCCC(NC(=O)Cc1ccc(C(=O)c2ccccc2)cc1)C(=O)N1CCN(CCCCN2c3ccccc3Sc3cc(N=[N+]=[N-])ccc32)CC1` (stereo not given), the TGI in assay [1], in assay [2], in assay [12], in assay [3], in assay [13] and in assay [4] was above 100 µM throughout. The TGI in assay [5], in [6], in assay [7], in assay [8], in [9] and in assay [10] was above 100 µM each time.
On to `Cc1cc(N(CCC#N)CCC#N)ccc1/C=C1N=C(/C=C/c2ccccc2)N(c2ccc(S(N)(=O)=O)cc2)C\1=O`, for which the TGI in [1], in [2], in assay [3], in [4], in [5] and in assay [6] was above 100 µM throughout. Moreover, the TGI in assay [7], in assay [8], in [9], in [10] and in assay [11] was above 100 µM each time.
For the compound `COc1cccc(N2C(=O)/C(=C/c3ccc(N(CCC#N)CCC#N)cc3)N=C2c2cc([N+](=O)[O-])ccc2Cl)c1`, the TGI in assay [1], in assay [2], in assay [3], in [5], in [6] and in [7] was above 100 µM throughout. Further, the TGI in [9], in [10] and in assay [11] was above 100 µM each time.
`N#CCCN(C1=NN(C(=O)CC(=O)Nc2ccc(Cl)cc2)C(c2ccccc2)C1)c1ccc(Cl)cc1` (stereo not given): the TGI in [1], in assay [2], in assay [3], in [4], in assay [5] and in assay [6] was above 100 µM in each case. For the same compound, the TGI in assay [7], in assay [8], in assay [9], in assay [10] and in assay [11] was above 100 µM throughout.
`Cc1cc(Cl)ccc1NC(=O)CC1SC(=NC(=O)c2ccccc2Cl)NC1=O` (stereo not given): the TGI in assay [1] is 71.1 µM; in assay [2] it was 38.4 µM; in assay [3] it was 75 µM; in [4], 32 µM; in assay [5] it was 36.3 µM; in [6], above 100 µM. Further, the TGI in assay [9] and in assay [11] was above 100 µM each time.
Regarding `O=c1sc(Nc2ccc3ccccc3c2Cl)nc2ccccc12`, the TGI in assay [1], in assay [2], in assay [12], in assay [14], in [13] and in [4] was above 100 µM throughout. For the same compound, the TGI in assay [5], in assay [7], in assay [8], in [9] and in [10] was above 100 µM in each case.
As to `CC(NC(=O)C(N)CC(=O)O)C(=O)OC12CC3CC(CC(C3)C1)C2` (stereo not given), the TGI in assay [1], in assay [2], in assay [12], in assay [13], in assay [4] and in assay [8] was above 100 µM each time. For the same compound, the TGI in assay [9], in [10] and in [11] was above 100 µM throughout.
Turning to `O=C1N=CN=C2C=CC(Cl)=C(I)C12` (stereo not given), the TGI in assay [1], in assay [2], in [4], in assay [5], in [6] and in assay [7] was above 100 µM in each case. Besides, the TGI in assay [8], in assay [9], in assay [10] and in [11] was above 100 µM in each case.

Source of the values: PubChem BioAssay (NCI).
